Data taken from US12077503B2, “Substituted cyclic amides and their use as herbicides” (FMC CORPORATION, priority 2015, dated 2024).

Experiments:
Type in all cases: in vivo
[1] = test system: barnyardgrass (Echinochloa crus-galli); assay: Test G Post-Emergence Protocol; settings: Echinochloa crus-galli, post-emergence, 312 h; for pest or weed control at 15.625 g/ha: 15.625 g ai/ha, evaluated after 13 days (100=total damage to plant; 0=no damage to plant), read-out: Barnyardgrass damage rating; for pest or weed control at 62.5 g/ha: 62.5 g ai/ha, read-out: Barnyardgrass damage rating (100=total damage to plant; 0=no damage to plant); for pest or weed control at 62.5 g/ha / pest or weed control at 250 g/ha: evaluated after 13 days; for pest or weed control at 250 g/ha: 250 g ai/ha, read-out: damage to plant, Barnyardgrass (100=total damage to plant; 0=no damage to plant)
Procedure, shortened: (§1)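 Seedlings grown 8 days in soil in a glasshouse (24/16 °C day/night, 14 h light, 65% humidity) were sprayed post-emergence with compound in acetone/water 50:50 plus 0.5% Tween 20 at 15.625, 62.5 or 250 g/ha. Damage was scored after 13 days on a 0–100 scale (100 = total damage).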

[2] = test system: velvetleaf (Abutilon theophrasti); assay: Test G Post-Emergence Protocol; settings: Abutilon theophrasti, post-emergence, 312 h; for pest or weed control at 15.625 g/ha: 15.625 g ai/ha, evaluated after 13 days (100=total damage to plant; 0=no damage to plant), read-out: Velvetleaf damage rating; for pest or weed control at 62.5 g/ha: 62.5 g ai/ha, read-out: Velvetleaf damage rating (100=total damage to plant; 0=no damage to plant); for pest or weed control at 62.5 g/ha / pest or weed control at 250 g/ha: evaluated after 13 days; for pest or weed control at 250 g/ha: 250 g ai/ha, read-out: damage to plant, Velvetleaf (100=total damage to plant; 0=no damage to plant)
Procedure, shortened: as §1

[3] = test system: ivy-leaved morning glory (Ipomoea hederacea); assay: Test G Post-Emergence Protocol; settings: Ipomoea, post-emergence, 312 h; for pest or weed control at 15.625 g/ha: 15.625 g ai/ha, evaluated after 13 days (100=total damage to plant; 0=no damage to plant), read-out: Morningglory, Ivy-leaved damage rating
Procedure, shortened: as §1

[4] = test system: redroot pigweed (Amaranthus retroflexus); assay: Test G Post-Emergence Protocol; settings: Amaranthus retroflexus, post-emergence, 312 h; for pest or weed control at 15.625 g/ha: 15.625 g ai/ha, evaluated after 13 days (100=total damage to plant; 0=no damage to plant), read-out: Pigweed, Redroot damage rating; for pest or weed control at 62.5 g/ha: 62.5 g ai/ha, read-out: Pigweed, Redroot damage rating (100=total damage to plant; 0=no damage to plant); for pest or weed control at 62.5 g/ha / pest or weed control at 250 g/ha: evaluated after 13 days; for pest or weed control at 250 g/ha: 250 g ai/ha, read-out: damage to plant, Pigweed, Redroot (100=total damage to plant; 0=no damage to plant)
Procedure, shortened: as §1

[5] = test system: corn (Zea mays); assay: Test G Post-Emergence Protocol; settings: Zea mays, post-emergence, 312 h; for plant injury at 15.625 g/ha: 15.625 g ai/ha, evaluated after 13 days (100=total damage to plant; 0=no damage to plant), read-out: Corn damage rating; for plant injury at 62.5 g/ha: 62.5 g ai/ha, read-out: Corn damage rating (100=total damage to plant; 0=no damage to plant); for plant injury at 62.5 g/ha / plant injury at 250 g/ha: evaluated after 13 days; for plant injury at 250 g/ha: 250 g ai/ha, read-out: damage to plant, Corn (100=total damage to plant; 0=no damage to plant)
Procedure, shortened: as §1

[6] = test system: giant foxtail (Setaria faberi); assay: Test G Post-Emergence Protocol; settings: Setaria faberi, post-emergence, 312 h; for pest or weed control at 15.625 g/ha: 15.625 g ai/ha, evaluated after 13 days (100=total damage to plant; 0=no damage to plant), read-out: Foxtail, Giant damage rating; for pest or weed control at 62.5 g/ha: 62.5 g ai/ha, read-out: Foxtail, Giant damage rating (100=total damage to plant; 0=no damage to plant); for pest or weed control at 62.5 g/ha / pest or weed control at 250 g/ha: evaluated after 13 days; for pest or weed control at 250 g/ha: 250 g ai/ha, read-out: damage to plant, Foxtail, Giant (100=total damage to plant; 0=no damage to plant)
Procedure, shortened: as §1

[7] = test system: barnyardgrass (Echinochloa crus-galli); assay: Test G Pre-Emergence Protocol; settings: Echinochloa crus-galli, pre-emergence, 312 h, evaluated after 13 days; for pest or weed control at 15.625 g/ha: 15.625 g ai/ha, read-out: Barnyard grass damage rating (100=total damage to plant; 0=no damage to plant); for pest or weed control at 62.5 g/ha: 62.5 g ai/ha, 100=total damage to plant, 0=no damage to plant, read-out: plant damage rating, Barnyardgrass; for pest or weed control at 250 g/ha: 250 g ai/ha, read-out: Barnyardgrass damage rating (100=total damage to plant; 0=no damage to plant)
Procedure, shortened: (§2)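 Pots of seeds in standard soil were grown for one day in a glasshouse (24/16 °C day/night, 14 h light, 65% humidity), then sprayed with compound in acetone/water 50:50 with 0.5% Tween 20 at 15.625, 62.5 or 250 g/ha. Damage was scored after 13 days on a 0 (none) to 100 (total) scale.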

[8] = test system: velvetleaf (Abutilon theophrasti); assay: Test G Pre-Emergence Protocol; settings: Abutilon theophrasti, pre-emergence, 312 h, evaluated after 13 days; for pest or weed control at 15.625 g/ha: 15.625 g ai/ha; for pest or weed control at 15.625 g/ha / pest or weed control at 250 g/ha: read-out: Velvetleaf damage rating (100=total damage to plant; 0=no damage to plant); for pest or weed control at 62.5 g/ha: 62.5 g ai/ha, 100=total damage to plant, 0=no damage to plant, read-out: plant damage rating, Velvetleaf; for pest or weed control at 250 g/ha: 250 g ai/ha
Procedure, shortened: as §2

[9] = test system: ivy-leaved morning glory (Ipomoea hederacea); assay: Test G Pre-Emergence Protocol; settings: Ipomoea, pre-emergence, 312 h, evaluated after 13 days; for pest or weed control at 15.625 g/ha: 15.625 g ai/ha, read-out: Morning-glory, Ivy-leaved damage rating (100=total damage to plant; 0=no damage to plant); for pest or weed control at 62.5 g/ha: 62.5 g ai/ha, 100=total damage to plant, 0=no damage to plant, read-out: plant damage rating, Morningglory, Ivy-leaved; for pest or weed control at 250 g/ha: 250 g ai/ha, read-out: Morningglory, Ivy-leaved damage rating (100=total damage to plant; 0=no damage to plant)
Procedure, shortened: as §2

[10] = test system: redroot pigweed (Amaranthus retroflexus); assay: Test G Pre-Emergence Protocol; settings: Amaranthus retroflexus, pre-emergence, 312 h, evaluated after 13 days; for pest or weed control at 15.625 g/ha: 15.625 g ai/ha; for pest or weed control at 15.625 g/ha / pest or weed control at 250 g/ha: read-out: Pigweed, Redroot damage rating (100=total damage to plant; 0=no damage to plant); for pest or weed control at 62.5 g/ha: 62.5 g ai/ha, 100=total damage to plant, 0=no damage to plant, read-out: plant damage rating, Pigweed, Redroot; for pest or weed control at 250 g/ha: 250 g ai/ha
Procedure, shortened: as §2

[11] = test system: corn (Zea mays); assay: Test G Pre-Emergence Protocol; settings: Zea mays, pre-emergence, 312 h, evaluated after 13 days; for plant injury at 15.625 g/ha: 15.625 g ai/ha; for plant injury at 15.625 g/ha / plant injury at 250 g/ha: read-out: Corn damage rating (100=total damage to plant; 0=no damage to plant); for plant injury at 62.5 g/ha: 62.5 g ai/ha, 100=total damage to plant, 0=no damage to plant, read-out: plant damage rating, Corn; for plant injury at 250 g/ha: 250 g ai/ha
Procedure, shortened: as §2

[12] = test system: giant foxtail (Setaria faberi); assay: Test G Pre-Emergence Protocol; settings: Setaria faberi, pre-emergence, 312 h, evaluated after 13 days; for pest or weed control at 15.625 g/ha: 15.625 g ai/ha; for pest or weed control at 15.625 g/ha / pest or weed control at 250 g/ha: read-out: Foxtail, Giant damage rating (100=total damage to plant; 0=no damage to plant); for pest or weed control at 62.5 g/ha: 62.5 g ai/ha, 100=total damage to plant, 0=no damage to plant, read-out: plant damage rating, Foxtail, Giant; for pest or weed control at 250 g/ha: 250 g ai/ha
Procedure, shortened: as §2

Cc1n[nH]c(NC(=O)[C@@H]2C(=O)N(C)C[C@H]2c2ccc(C(F)(F)F)cc2)c1C#N (racemic) [Compound 1582]
0%: pest or weed control at 15.625 g/ha [1] | pest or weed control at 62.5 g/ha [1] | pest or weed control at 250 g/ha [1] | pest or weed control at 15.625 g/ha [2] | pest or weed control at 62.5 g/ha [2] | pest or weed control at 250 g/ha [2] | pest or weed control at 15.625 g/ha [3] | pest or weed control at 15.625 g/ha [4] | pest or weed control at 62.5 g/ha [4] | pest or weed control at 250 g/ha [4] | plant injury at 15.625 g/ha [5] | plant injury at 62.5 g/ha [5] | plant injury at 250 g/ha [5] | pest or weed control at 15.625 g/ha [6] | pest or weed control at 62.5 g/ha [6] | pest or weed control at 250 g/ha [6] | pest or weed control at 15.625 g/ha [7] | pest or weed control at 62.5 g/ha [7] | pest or weed control at 250 g/ha [7] | pest or weed control at 15.625 g/ha [8] | pest or weed control at 62.5 g/ha [8] | pest or weed control at 250 g/ha [8] | pest or weed control at 15.625 g/ha [9] | pest or weed control at 62.5 g/ha [9] | pest or weed control at 250 g/ha [9] | pest or weed control at 15.625 g/ha [10] | pest or weed control at 62.5 g/ha [10] | pest or weed control at 250 g/ha [10] | plant injury at 15.625 g/ha [11] | plant injury at 62.5 g/ha [11] | plant injury at 250 g/ha [11] | pest or weed control at 15.625 g/ha [12] | pest or weed control at 62.5 g/ha [12] | pest or weed control at 250 g/ha [12]

CN1C[C@@H](c2ccc(C(F)(F)F)cc2)[C@H](C(=O)Nc2ccnc(C(F)(F)F)c2)C1=O (racemic) [Compound 1638]
0%: pest or weed control at 15.625 g/ha [1] | pest or weed control at 62.5 g/ha [1] | pest or weed control at 250 g/ha [1] | pest or weed control at 15.625 g/ha [2] | pest or weed control at 62.5 g/ha [2] | pest or weed control at 250 g/ha [2] | pest or weed control at 15.625 g/ha [3] | pest or weed control at 62.5 g/ha ([3]; 62.5 g ai/ha, evaluated after 13 days, read-out: Morningglory, Ivy-leaved damage rating (100=total damage to plant; 0=no damage to plant)) | pest or weed control at 250 g/ha ([3]; 250 g ai/ha, evaluated after 13 days, read-out: damage to plant, Morningglory, Ivy-leaved (100=total damage to plant; 0=no damage to plant)) | pest or weed control at 15.625 g/ha [4] | pest or weed control at 62.5 g/ha [4] | pest or weed control at 250 g/ha [4] | plant injury at 15.625 g/ha [5] | plant injury at 62.5 g/ha [5] | plant injury at 250 g/ha [5] | pest or weed control at 15.625 g/ha [6] | pest or weed control at 62.5 g/ha [6] | pest or weed control at 250 g/ha [6] | pest or weed control at 15.625 g/ha [7] | pest or weed control at 62.5 g/ha [7] | pest or weed control at 250 g/ha [7] | pest or weed control at 15.625 g/ha [8] | pest or weed control at 62.5 g/ha [8] | pest or weed control at 250 g/ha [8] | pest or weed control at 15.625 g/ha [9] | pest or weed control at 62.5 g/ha [9] | pest or weed control at 250 g/ha [9] | pest or weed control at 15.625 g/ha [10] | pest or weed control at 62.5 g/ha [10] | pest or weed control at 250 g/ha [10] | plant injury at 15.625 g/ha [11] | plant injury at 62.5 g/ha [11] | plant injury at 250 g/ha [11] | pest or weed control at 15.625 g/ha [12] | pest or weed control at 62.5 g/ha [12] | pest or weed control at 250 g/ha [12]
